# Reference: paper PMC11189516, “Structure-guided conversion from an anaplastic lymphoma kinase inhibitor into Plasmodium lysyl-tRNA synthetase selective inhibitors” (Communications Biology, 2024)
# “And” between values parts separate entries of the source, which are not always exact repeats. Identical values can stand only once. Like-named read-outs stand apart in the source and are kept apart here.
# Legend:
# HsLysRS = target: T1, HsLysRS (Homo sapiens, UniProt Q15046); assay: ATP hydrolysis assay (Kinase-Glo) on HsLysRS; assay type: biochemical; conditions: for LogIC50 (best-fit value): log of nM
# T1 construct: HsLysRS (70–581) was constructed in the vector pET20b with a C-terminal 6×His tag; 6xHis (C); made in house; host or cells: E. coli (pET20b; 'purified similarly' to PfLysRS, which was expressed in BL21 (DE3))
# T1 sequence (Q15046 70-581): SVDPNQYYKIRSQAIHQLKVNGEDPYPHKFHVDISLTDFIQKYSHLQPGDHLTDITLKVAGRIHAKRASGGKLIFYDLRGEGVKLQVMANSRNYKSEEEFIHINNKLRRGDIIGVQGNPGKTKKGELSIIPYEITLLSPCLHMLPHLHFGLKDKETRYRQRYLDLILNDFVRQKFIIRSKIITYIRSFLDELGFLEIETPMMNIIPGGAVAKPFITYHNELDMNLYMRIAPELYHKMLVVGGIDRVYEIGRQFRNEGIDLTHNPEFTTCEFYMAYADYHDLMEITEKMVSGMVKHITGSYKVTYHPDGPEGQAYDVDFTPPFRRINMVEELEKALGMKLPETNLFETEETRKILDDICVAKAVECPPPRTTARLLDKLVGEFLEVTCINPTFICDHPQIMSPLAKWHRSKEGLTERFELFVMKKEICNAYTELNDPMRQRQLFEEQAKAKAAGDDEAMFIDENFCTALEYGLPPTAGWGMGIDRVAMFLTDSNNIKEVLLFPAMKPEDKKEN
# Procedure: The ATP hydrolysis assays were based on Kinase-Glo luminescent Kit (Promega). The experiment was carried out in Corning 384-well white flat bottom microplates. The buffer in the reaction contains 25 mM Hepes pH 7.4, 140 mM NaCl, 40 mM MgCl2, 30 mM KCl, 1 mM TCEP, 0.1 mg·mL^−1 BSA, and 0.004% Tween-20. The compounds were diluted to different concentrations with a 5-fold gradient.
# For LysRS assays, DMSO was added into negative control wells and L-lysine was removed in positive control wells. 100 nM LysRS in 2.5 μL Hepes buffer was mixed with compounds and incubated for 10 min. Then 5 μL substrate mixture (2 μM ATP, 10 μM L-lysine and 31 nM pyrophosphatase) was added to start the reaction at 37 °C and incubated for 6 h.
# When the reaction reaches the planned time, 10 μL diluted Kinase-Glo reagent (1/50 diluted with a buffer containing 50 mM Tris pH 7.5 and 5% glycerol) was added and incubated for 15 min. Luminescence was measured on the Magellan plate reader (Tecan) and nonlinear regression was performed with Prism (GraphPad).
# HepG2 cells = assay: Cytotoxicity assay (CCK-8); assay type: cell-based, human; conditions: HepG2, 72 h
# Procedure: (§1) HepG2 cells (National Collection of Authenticated Cell Cultures) were cultured in Minimum Essential Medium (Gibco) supplemented with 10% of fetal bovine serum, 100 U·mL^−1 penicillin, 100 U·mL^−1 streptomycin (Gibco), 2 mM L-Glutamine (Gibco), 1× NEAA (Gibco) and 1 mM Sodium Pyruvate (Gibco). The cells were hemi-depleted each week with fresh medium and maintained at 1 ~ 2 × 10^6 cells/mL in 6-cm dishes at 37 °C and 5% CO2. Tested with MycoBlue Mycoplasma Detector D101 (Vazyme), the cells were free from mycoplasma contamination.
# (§2) Cell viability was analyzed by Cell Counting Kit-8 (CCK8, ApexBio) according to the manufacturer’s protocols. Cells were seeded and cultured at a density of 2.5 × 10^3 cells per well in 100 μL medium in 96-well microplates (Corning). Then, the cells were treated with different concentrations of compound (0, 1 μM, 3 μM, 10 μM, 100 μM, 300 μM). […] After treatment for 72 h, 10 μL of CCK-8 reagent was added to each well and then cultured for 4 h. All experiments were performed in pentaplicate. The absorbance was analyzed at 450 nm using a microplate reader (Tecan) using medium without cells as blanks. Data was processed using GraphPad Prism 9.
# [1] = Cytotoxicity assay (CCK-8); assay type: cell-based, human; conditions: human, HepG2 cells; HepG2, 72 h
# Procedure: as §1, §2
# [2] = HsLysRS, Log(Concentration)/nM 2.505, single repeats
# [3] = HsLysRS, Log(Concentration)/nM 3.204, single repeats
# [4] = HsLysRS, Log(Concentration)/nM 3.903, single repeats
# [5] = HsLysRS, Log(Concentration)/nM 4.602, single repeats
# [6] = HsLysRS, Log(Concentration)/nM 5.301, single repeats
# [7] = HsLysRS, source data, read-out: IC50 (best-fit value)
HillSlope (best-fit value) (HsLysRS; HsLysRS),"% Inhibition (HsLysRS; HsLysRS, Log(Concentration)/nM 1.806, single repeats)",% Inhibition (HsLysRS; [2]),% Inhibition (HsLysRS; [3]),% Inhibition (HsLysRS; [4]),% Inhibition (HsLysRS; [5]),% Inhibition (HsLysRS; [6]),LogIC50 (best-fit value) (HsLysRS; HsLysRS),IC50 (HsLysRS; [7]),IC50 (HsLysRS; read-out: IC50 against HsLysRS),"% Inhibition (HsLysRS; HsLysRS, Log(Concentration)/nM 6.000, single repeats)",selectivity of PfLysRS over human LysRS (HsLysRS) (HsLysRS; in vitro),SMILES,cytotoxicity to HepG2 (HepG2 cells),CC50 at 72 h [1]
0.3683,3.227% and 2.137% and -5.363%,19.3% and 12.84% and 21.95%,37.3% and 27.64% and 28.87%,26.36% and 22.16% and 26.38%,50.64% and 39% and 42.59%,74.45% and 64.99% and 63.03%,5.258,181 µM,> 181 µM,–,–,COc1ccc(OC)c(Nc2ncnc(Nc3ccccc3S(=O)(=O)C(C)C)n2)c1 [Compound 36],no significant toxicity,–
2.263,–,4.732% and 9.196% and 7.614%,10.26% and 9.294% and 11.16%,5.367% and 4.771% and 4.914%,24.12% and 17.72% and 16.76%,34.85% and 34.96% and 31.62%,5.476,299 µM,299 ± 34 µM,100.3% and 101% and 91.99%,328 times,COc1ccccc1Nc1ncnc(Nc2ccccc2S(=O)(=O)C(C)C)n1 [Compound 38],–,7.7 µM
